Values after ≈ are worked out from the molar mass of the structure shown.
Tests used:
Assay type in all cases: functional
Candida albicans = assay: Antimicrobial activity against Candida albicans SC5314 assessed as growth inhibition after 24 hrs by microdilution assay
Escherichia coli = assay: Antimicrobial activity against Escherichia coli ATCC35218 assessed as growth inhibition after 24 hrs by microdilution assay
Bacillus subtilis = assay: Antimicrobial activity against Bacillus subtilis ATCC9372 assessed as growth inhibition after 24 hrs by microdilution assay
Staphylococcus aureus = assay: Antimicrobial activity against Staphylococcus aureus ATCC12715 assessed as growth inhibition after 24 hrs by microdilution assay
[1] = system: Staphylococcus epidermidis; assay: Antimicrobial activity against Staphylococcus epidermis CCM628 assessed as growth inhibition after 24 hrs by microdilution assay

MIC (Candida albicans)	MIC (Escherichia coli)	MIC (Bacillus subtilis)	MIC (Staphylococcus aureus)	MIC [1]	SMILES
> 64 mg/L	> 64 mg/L	8 mg/L (≈ 4.93 µM)	8 mg/L (≈ 4.93 µM)	2 mg/L (≈ 1.23 µM)	C=C(NC(=O)C(=C)NC(=O)c1csc([C@H]2CC[C@]34NC(=O)C(=C)NC(=O)C(=C)NC(=O)C(=C)NC(=O)[C@H](C)N[C@@H]5C=Cc6c([C@H](C)O)cc(nc6[C@H]5O)C(=O)O[C@H](C)[C@H](NC(=O)c5csc(n5)[C@H]([C@@](C)(O)[C@H](C)O)NC(=O)[C@H]5CSC(=N5)/C(=C/C)NC(=O)[C@H]([C@@H](C)O)NC(=O)c5csc3n5)c3nc(cs3)[C@H]4N2)n1)C(=O)O
> 64 mg/L	> 64 mg/L	1 mg/L (≈ 0.667 µM)	1 mg/L (≈ 0.667 µM)	0.5 mg/L (≈ 0.334 µM)	C=C1NC(=O)C(=C)NC(=O)[C@H](C)N[C@@H]2C=Cc3c([C@H](C)O)cc(nc3[C@H]2O)C(=O)O[C@H](C)[C@@H]2NC(=S)c3csc(n3)[C@H]([C@@](C)(O)[C@H](C)O)NC(=O)[C@H]3CSC(=N3)/C(=C/C)NC(=O)[C@H]([C@@H](C)O)NC(=O)c3csc(n3)[C@]3(CC[C@H](c4nc(C(N)=O)cs4)N[C@@H]3c3csc2n3)NC(=O)C(=C)NC1=O
> 64 mg/L	> 64 mg/L	0.06 mg/L (≈ 0.036 µM)	0.06 mg/L (≈ 0.036 µM)	< 0.01 mg/L	C=C(NC(=O)C(=C)NC(=O)c1csc(C2=N[C@@H]3c4csc(n4)[C@H]4NC(=O)c5csc(n5)[C@H]([C@@](C)(O)[C@H](C)O)NC(=O)[C@H]5CSC(=N5)/C(=C/C)NC(=O)[C@H]([C@@H](C)O)NC(=O)c5csc(n5)[C@]3(CC2)NC(=O)[C@H](C)NC(=O)C(=C)NC(=O)[C@H](C)NC(=O)[C@H]([C@@H](C)CC)N[C@@H]2C=Cc3c([C@H](C)O)cc(nc3[C@H]2O)C(=O)O[C@@H]4C)n1)C(N)=O
> 64 mg/L	> 64 mg/L	0.25 mg/L (≈ 0.153 µM)	0.5 mg/L (≈ 0.305 µM)	0.25 mg/L (≈ 0.153 µM)	C=C(NC(=O)C(=C)NC(=O)c1csc([C@H]2CC[C@]34NC(=O)C(=C)NC(=O)C(=C)NC(=O)C(=C)NC(=O)[C@H](C)N[C@@H]5C=Cc6c([C@H](C)O)cc(nc6[C@H]5O)C(=O)O[C@H](C)[C@H](NC(=S)c5csc(n5)[C@H]([C@@](C)(O)[C@H](C)O)NC(=O)[C@H]5CSC(=N5)/C(=C/C)NC(=O)[C@H]([C@@H](C)O)NC(=O)c5csc3n5)c3nc(cs3)[C@H]4N2)n1)C(=O)O

More lines, now with the values behind:

SMILES	MIC (Candida albicans)	MIC (Escherichia coli)	MIC (Bacillus subtilis)	MIC (Staphylococcus aureus)	MIC [1]
O=C(O)c1cn(C2CC2)c2cc(N3CCNCC3)c(F)cc2c1=O [CIPROFLOXACIN]	> 64 mg/L	< 0.01 mg/L	0.06 mg/L (≈ 0.181 µM)	0.06 mg/L (≈ 0.181 µM)	0.06 mg/L (≈ 0.181 µM)
C=C(NC(=O)c1csc([C@H]2CC[C@]34NC(=O)C(=C)NC(=O)C(=C)NC(=O)C(=C)NC(=O)[C@H](C)N[C@@H]5C=Cc6c([C@H](C)O)cc(nc6[C@H]5O)C(=O)O[C@H](C)[C@H](NC(=S)c5csc(n5)[C@H]([C@@](C)(O)[C@H](C)O)NC(=O)[C@H]5CSC(=N5)/C(=C/C)NC(=O)[C@H]([C@@H](C)O)NC(=O)c5csc3n5)c3nc(cs3)[C@H]4N2)n1)C(N)=O	> 64 mg/L	> 64 mg/L	1 mg/L (≈ 0.638 µM)	2 mg/L (≈ 1.28 µM)	0.5 mg/L (≈ 0.319 µM)
C[C@@H]1[C@H](O)[C@@H](C)/C=C/C=C/C=C/C=C/C=C/C=C/C=C/[C@H](O[C@@H]2O[C@H](C)[C@@H](O)[C@H](N)[C@@H]2O)C[C@@H]2O[C@](O)(C[C@@H](O)C[C@@H](O)[C@H](O)CC[C@@H](O)C[C@@H](O)CC(=O)O[C@H]1C)C[C@H](O)[C@H]2C(=O)O [AMPHOTERICIN B]	0.25 mg/L (≈ 0.271 µM)	> 64 mg/L	> 64 mg/L	> 64 mg/L	> 64 mg/L
